Results from PubChem BioAssay AID256 (DTP/NCI, 2004).
Where “and” joins values, the source holds several entries; their conditions need not be identical. Equal values may be shown once. Inconclusive results and toxic doses are left out. Rule for the calls: active = survival T/C of 150% or more; inactive = T/C below 125% in these data.

Test system: CD2F1 mice, L1210 leukemia ip, survival T/C
Assay: NCI In Vivo Anticancer Drug Screen. Data for tumor model L1210 Leukemia (intraperitoneal) in CD2F1 (CDF1) mice
Details: higher = longer survival
Summary of the method: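 Compound-dosed mice with transplantable tumor versus matched vehicle controls; endpoint ratio T/C reported.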

[1] = endpoint: mean survival time, dose: 100.0 mg/kg/injection, schedule: Q04DX003 (ip), vehicle: saline with Tween-80
[2] = endpoint: mean survival time, dose: 200.0 mg/kg/injection, schedule: Q04DX003 (ip), vehicle: saline with Tween-80
[3] = endpoint: mean survival time, dose: 400.0 mg/kg/injection, schedule: Q04DX003 (ip), vehicle: saline with Tween-80
[4] = endpoint: mean survival time, dose: 100.0 mg/kg/injection, schedule: Q04DX002 (ip), vehicle: saline with Tween-80
[5] = endpoint: mean survival time, dose: 200.0 mg/kg/injection, schedule: Q04DX002 (ip), vehicle: saline with Tween-80
[6] = endpoint: mean survival time, dose: 400.0 mg/kg/injection, schedule: Q04DX002 (ip), vehicle: saline with Tween-80
[7] = endpoint: mean survival time, dose: 75.0 mg/kg/injection, schedule: Q01DX001 (ip), vehicle: saline
[8] = endpoint: mean survival time, dose: 100.0 mg/kg/injection, schedule: Q01DX009 (ip), vehicle: saline with Tween-80
[9] = endpoint: mean survival time, dose: 200.0 mg/kg/injection, schedule: Q01DX009 (ip), vehicle: saline with Tween-80
[10] = endpoint: mean survival time, dose: 400.0 mg/kg/injection, schedule: Q01DX009 (ip), vehicle: saline with Tween-80
[11] = endpoint: mean survival time, dose: 25.0 mg/kg/injection, schedule: Q01DX009 (ip), vehicle: saline with Tween-80
[12] = endpoint: mean survival time, dose: 50.0 mg/kg/injection, schedule: Q01DX009 (ip), vehicle: saline with Tween-80
[13] = endpoint: mean survival time, dose: 100.0 mg/kg/injection, schedule: Q01DX001 (ip), vehicle: saline with Tween-80
[14] = endpoint: mean survival time, dose: 200.0 mg/kg/injection, schedule: Q01DX001 (ip), vehicle: saline with Tween-80
[15] = endpoint: mean survival time, dose: 400.0 mg/kg/injection, schedule: Q01DX001 (ip), vehicle: saline with Tween-80
[16] = endpoint: mean survival time, dose: 100.0 mg/kg/injection, schedule: Q04DX003 (ip), vehicle: saline
[17] = endpoint: mean survival time, dose: 200.0 mg/kg/injection, schedule: Q04DX003 (ip), vehicle: saline
[18] = endpoint: mean survival time, dose: 400.0 mg/kg/injection, schedule: Q04DX003 (ip), vehicle: saline

Measured: T/C

OC1CC2CC2CC1O (stereo unspecified)
inactive: [1] 103 % of control | [2] 92 % of control | [3] 96 % of control

O=C(O)CNS(=O)(=O)c1ccccc1
inactive: [1] 98 % of control | [2] 101 % of control | [3] 93 % of control

O=c1[nH]cc([N+](=O)[O-])c(=O)[nH]1
inactive: [4] 97 % of control | [5] 97 % of control | [6] 101 % of control

FC1(F)C(Cl)=[C]([Hg][C]2=C(Cl)C(F)(F)C(F)(F)C(F)(F)C2(F)F)C(F)(F)C(F)(F)C1(F)F
inactive: endpoint: mean survival time, dose: 37.5 mg/kg/injection, schedule: Q04DX003 (ip), vehicle: saline 104 % of control | [7] 106 % of control | endpoint: mean survival time, dose: 75.0 mg/kg/injection, schedule: Q04DX003 (ip), vehicle: saline 97 % of control | endpoint: mean survival time, dose: 150.0 mg/kg/injection, schedule: Q01DX001 (ip), vehicle: saline 95 % of control

CCOC(=O)C(CCC(=O)O)NC(=O)OCc1ccccc1 (stereo unspecified)
inactive: [1] 97 % of control | [2] 99 % of control | [3] 91 % of control

O=C1CSC(=S)N1
inactive: [8] 89 % of control | [1] 105 % of control | [9] 97 % of control | [2] 92 % of control | [3] 94 % of control

C=C1N(c2ccccc2)C(=O)OC1(C)C
inactive: [4] 112 % of control | [5] 112 % of control | [6] 122 % of control

OC(COc1ccccc1)COc1ccccc1
inactive: [8] 98 % of control | [9] 93 % of control | [10] 89 % of control

COc1cccc(CCNC(=O)CCN2C(=O)CCC2=O)c1
inactive: [8] 98 % of control | endpoint: mean survival time, dose: 100.0 mg/kg/injection, schedule: Q04DX003 (ip), vehicle: saline sonified 101 % of control | [9] 93 % of control | endpoint: mean survival time, dose: 200.0 mg/kg/injection, schedule: Q04DX003 (ip), vehicle: saline sonified 98 % of control | [10] 100 % of control | endpoint: mean survival time, dose: 400.0 mg/kg/injection, schedule: Q04DX003 (ip), vehicle: saline sonified 104 % of control

CSc1nc(C)cc(N)n1
inactive: [1] 107 % of control | [2] 102 % of control

OC12CC3C4CC(O1)C1C4CC3C12 (stereo unspecified)
inactive: endpoint: mean survival time, dose: 100.0 mg/kg/injection, schedule: Q01DX001 (ip), vehicle: saline 100 % of control | endpoint: mean survival time, dose: 200.0 mg/kg/injection, schedule: Q01DX001 (ip), vehicle: saline 96 % of control | endpoint: mean survival time, dose: 400.0 mg/kg/injection, schedule: Q01DX001 (ip), vehicle: saline 96 % of control

CCSC(=O)CC
inactive: [8] 93 % of control | [9] 98 % of control

Cc1nc(Cl)c(C)c(C(=O)O)n1
inactive: endpoint: mean survival time, dose: 12.5 mg/kg/injection, schedule: Q01DX009 (ip), vehicle: other 98 % of control | endpoint: mean survival time, dose: 25.0 mg/kg/injection, schedule: Q01DX009 (ip), vehicle: other 102 % of control | endpoint: mean survival time, dose: 50.0 mg/kg/injection, schedule: Q01DX009 (ip), vehicle: other 104 % of control | endpoint: mean survival time, dose: 100.0 mg/kg/injection, schedule: Q01DX009 (ip), vehicle: other 96 % of control

OC(Cc1nc2ccccc2s1)(C(F)(F)F)C(F)(F)F
inactive: [8] 96 % of control | [1] 95 % of control | [9] 93 % of control | [2] 104 % of control | [10] 96 % of control | [3] 97 % of control

CC1=CC(C)N(C(=O)c2ccc(Cl)cc2)CCN1C(=O)c1ccc(Cl)cc1 (stereo unspecified)
inactive: [1] 98 % of control | [2] 102 % of control | [3] 102 % of control

CCCCCCCCCCCCCCCCCC[N+]1(Cc2ccccc2)CCOCC1
inactive: [11] 103 % of control | [12] 115 % of control | [8] 91 % of control and 100 % of control

COC(=O)CNc1ccn(C2OC(CO)C(O)C2O)c(=O)n1 (stereo unspecified)
inactive: endpoint: mean survival time, dose: 12.5 mg/kg/injection, schedule: Q01DX005 (ip), vehicle: distilled water + Tween-80 96 % of control | endpoint: mean survival time, dose: 25.0 mg/kg/injection, schedule: Q01DX005 (ip), vehicle: distilled water + Tween-80 100 % of control | endpoint: mean survival time, dose: 50.0 mg/kg/injection, schedule: Q01DX005 (ip), vehicle: distilled water + Tween-80 100 % of control | endpoint: mean survival time, dose: 100.0 mg/kg/injection, schedule: Q01DX005 (ip), vehicle: distilled water + Tween-80 97 % of control | endpoint: mean survival time, dose: 200.0 mg/kg/injection, schedule: Q01DX005 (ip), vehicle: distilled water + Tween-80 103 % of control

CC12CCC3C(CCC(CC(=O)O)C3(C)CC(=O)O)C1CCC2=O (stereo unspecified)
inactive: [13] 98 % of control | [14] 97 % of control | [15] 97 % of control

CCOC(=O)Cc1cnc(SC)nc1Nc1ccc(C)cc1
inactive: [13] 97 % of control | [14] 108 % of control | [15] 106 % of control

Nc1ccccc1Nc1ccncc1
inactive: [11] 100 % of control | [12] 101 % of control | [1] 91 % of control

c1cc[c]([Ge]([c]2ccccc2)([c]2ccccc2)[c]2ccccc2)cc1
inactive: [16] 86 % of control | [17] 86 % of control | [18] 91 % of control

CC(CC(C(=O)O)C(=O)O)C(=O)O (stereo unspecified)
inactive: endpoint: mean survival time, dose: 12.5 mg/kg/injection, schedule: Q01DX009 (ip), vehicle: water 93 % of control | endpoint: mean survival time, dose: 25.0 mg/kg/injection, schedule: Q01DX009 (ip), vehicle: water 93 % of control | endpoint: mean survival time, dose: 50.0 mg/kg/injection, schedule: Q01DX009 (ip), vehicle: water 93 % of control | endpoint: mean survival time, dose: 100.0 mg/kg/injection, schedule: Q01DX009 (ip), vehicle: water 91 % of control

CCC/C=C/C(O)C(C)C(C)C (stereo unspecified)
inactive: [12] 103 % of control | [8] 103 % of control | [9] 98 % of control

Cc1cccc(OCC2=NCCN2)c1C
inactive: endpoint: mean survival time, dose: 6.25 mg/kg/injection, schedule: Q04DX002 (ip), vehicle: saline with Tween-80 102 % of control | endpoint: mean survival time, dose: 12.5 mg/kg/injection, schedule: Q04DX002 (ip), vehicle: saline with Tween-80 109 % of control | endpoint: mean survival time, dose: 25.0 mg/kg/injection, schedule: Q04DX002 (ip), vehicle: saline with Tween-80 97 % of control

Cc1ccc2scc3c4ccccc4nc-3c2c1
inactive: endpoint: mean survival time, dose: 100.0 mg/kg/injection, schedule: Q04DX003 (ip), vehicle: acetone 97 % of control

CC(C)(C)C(=O)CC(=O)C(C)(C)C.CC(C)(C)C(=O)CC(=O)C(C)(C)C.CC(C)(C)C(=O)CC(=O)C(C)(C)C.[La]
inactive: [1] 94 % of control | [2] 101 % of control | [3] 97 % of control

CC(CNC1CCCCC1)OC(=O)c1ccc(N)cc1 (stereo unspecified)
inactive: [7] 102 % of control

COc1ccc(/C=C/C(=O)c2ccc3c(c2)OCO3)cc1OC
inactive: [16] 91 % of control | [17] 93 % of control | [18] 95 % of control

O=C(O)C12CC3CC(CC(C3)C1)C2
inactive: [1] 103 % of control | [2] 105 % of control | [3] 102 % of control

O=C1CNC(=O)N1CN1CCOCC1
inactive: endpoint: median survival time, dose: 50.0 mg/kg/injection, schedule: Q01DX009 (ip), vehicle: Klucel (hydroxypropylcellulose) (HPC) 108 % of control | endpoint: median survival time, dose: 100.0 mg/kg/injection, schedule: Q01DX009 (ip), vehicle: Klucel (hydroxypropylcellulose) (HPC) 116 % of control | endpoint: median survival time, dose: 200.0 mg/kg/injection, schedule: Q01DX009 (ip), vehicle: Klucel (hydroxypropylcellulose) (HPC) 116 % of control | endpoint: median survival time, dose: 400.0 mg/kg/injection, schedule: Q01DX009 (ip), vehicle: Klucel (hydroxypropylcellulose) (HPC) 117 % of control

CC(=O)[C@@]12O[C@@H]1C[C@H]1[C@@H]3CCC4=CC(=O)CC[C@]4(C)[C@H]3CC[C@@]12C
inactive: [4] 96 % of control | [5] 101 % of control | [6] 96 % of control
